Converted amounts (≈) assume the structure as drawn.
Tests used:
Leishmania donovani [1] = settings: cited from earlier work
[2] = system: Leishmania donovani promastigotes; experiment: Antileishmanial activity against promastigotes (MTT assay); format: cell-based; settings: for IC50: Leishmania donovani, read-out: IC50 (μg/ml) ±SD promastigote; for IC50 / IC50 (μg/ml) ±SD promastigote: 96 hrs at 25° C, MTT, mean of three experiments; for Therapeutic Index (TC50/IC50) promastigotes: TC50 RAW / IC50 promastigote
Description: Amphotericin B was used as a positive control. The 3-(4,5-Dimethylthiazol-2-yl)-2,5-diphenyltetrazolium bromide (MTT) assay was used to determine the parasite viability as previously described.

[3] = system: Leishmania donovani amastigotes in RAW macrophage cells; experiment: Antileishmanial activity against macrophage-amastigotes (MTT assay); format: cell-based; settings: for IC50: Leishmania donovani, Macrophage, read-out: IC50 (μg/ml) ±SD amastigote; for IC50 / IC50 (μg/ml) ±SD amastigote: amastigotes in RAW macrophages, MTT; for Therapeutic Index (TC50/IC50) amastigotes: TC50 RAW / IC50 amastigote
Method: The RAW macrophage cells were infected with promastigotes at a density of 1:10 ratio, respectively for 12 hrs and the non-phagocytosed promastigotes and media removed by aspiration. The RAW macrophages cells containing the internalized amastigote cells were treated with the compounds to test for their growth inhibitory potentials as previously described. The 3-(4,5-Dimethylthiazol-2-yl)-2,5-diphenyltetrazolium bromide (MTT) assay was also used to determine the parasite viability. […] was measured with a Varioskan Lux Elisa plate reader at a wavelength of 570 nm.

[4] = system: RAW 264.7 murine macrophage cell line; experiment: Cytotoxicity against mammalian RAW macrophage cell line (MTT assay); settings: 48 hrs, 50% cytotoxic concentration
Description: Here, amphotericin B was used as a positive control and the negative control was untreated RAW cell line.

O+ human red blood cells = experiment: Haemolytic potential; settings: 2% haematocrit, up to 100 μg/ml
Method: The compounds were tested against the O^+ human red blood cells (obtained from the Malaria laboratory of WACCBIP) at a density of 2% haematocrit for their ability to lyse erythrocytes upon incubation. Here, a concentration of up to 100 μg/ml of compounds was used, and the 50% haemolytic concentration (HC50) of the compounds were determined by analysis of dose-response curves as described.

[5] = system: Leishmania donovani promastigotes; experiment: Growth kinetics and cytocidal/cytostatic (growth reversibility) assay; format: cell-based; settings: 1 μg/ml, 120 hrs treatment, then 96 hrs in fresh media
Method: The compounds (at 1 μg/ml) were tested for their effects on the growth kinetic pattern against the promastigotes of L. donovani. The parasite cells (2 x 10^5 cells/ml) were incubated at 25° C in the presence of the test compounds in M199 supplemented with 10% FBS. Amphotericin B treated parasites (0–50 μg/ml) were used as the positive control while the untreated promastigotes in medium alone served as the negative control. Viable cells were counted every 24 hrs for a total of 120 hrs as indicated in previous studies.
The cytocidal/cytostatic effect of the test compounds were assessed by analyzing the treated and untreated parasites after 120 hrs of incubation. Cells were washed twice with fresh M199, resuspended in complete M199 media and incubated further for 96 hrs. The viable cells were then counted microscopically.

[6] = system: Leishmania donovani promastigotes; experiment: Externalization of phosphatidylserine, Annexin V-FITC / PI flow cytometry; format: cell-based; settings: 2x IC50, 24 hrs; for effect on externalization of phosphatidylserine (apoptotic potential): p-value = 0.9926
Method: A double staining of treated/ untreated promastigotes of Leishmania donovani (2 x 10^5 cells/ml) with Annexin V-FITC and Propidium Iodide (PI) was done to determine the apoptotic and necrotic effects of the some of the established cytocidal compounds amongst the eighteen MMV compounds studied. Treatment was set at 2x IC50 concentrations of the respective test compounds against a negative control of untreated promastigote cells in a 24 hrs incubation period. The cells were then prepared using the Annexin V-FITC apoptosis detection kit following the Sigma protocol (Catalog Number: APOAF). Further treatment and analysis of cells was done as shown previously.

[7] = system: Leishmania donovani promastigotes; experiment: Cell cycle analysis by flow cytometry; format: cell-based; settings: 2x IC50, 24 hrs, versus untreated
Method: The analysis was done using the protocol as designed in the Guava cell cycle reagent manual (catalog No. 4500–0220). […] Both treated and untreated Leishmania cells were incubated for 24 hrs, samples read using a flow cytometer (BD LSR Fortessa X-20 analyzer BD Biosciences), and the respective cell counts analyzed in the G0/G1, S and G2/M Phases. Data generated was further analyzed using the FlowJo V10 software.

[8] = system: Leishmania donovani promastigotes; experiment: Morphological and mitochondrion effects by fluorescence microscopy (DAPI, MitoTracker); format: cell-based
Method: Their mitochondrial integrity were analyzed using a slightly modified DAPI and Mitotracker dye protocol as described by Amisigo and colleagues.

[9] = system: Leishmania donovani amastigotes; experiment: ROS generation in treated amastigotes (H2DCFDA); format: cell-based; settings: 100, 50 or 25 μM, 24 hrs
Method: (§1) The degree of reactive oxygen species (ROS) production in treated promastigote and amastigote cells of L. donovani were assessed using the H2DCFDA (2’,7’-dichlorodihydrofluorescein diacetate) rich fluorescent dye (MAK145 Sigma-Aldrich) ROS detection kit. […] Amoxicillin was used as a positive control for pro-oxidative generation while Vitamin C was used as a positive control for anti-oxidative potential. The treated and untreated cells were then suspended in PBS, washed, and resuspended in PBS, then incubated with the ROS detection master mix for 1 hr as instructed by the protocol. The cells were analyzed for intracellular ROS generation by measuring the fluorescence intensity which is proportional to the ROS production level using the Varioskan Lux Elisa microplate reader (Thermo Fischer Scientific, USA) at a wavelength of 605 nm.

[10] = system: Leishmania donovani promastigotes; experiment: ROS generation in treated promastigotes (H2DCFDA); format: cell-based; settings: 100, 50 or 25 μM, 72 hrs
Method: as §1

Leishmania donovani [11] = system: Leishmania donovani; parameters: method as in PMID 33268145; settings: dosed at 50 mg/kg, mouse model of visceral leishmaniasis; cited from earlier work

| Compound | efficacy among water-soluble ferrocenylquinoline derivatives (Leishmania donovani [1]) | IC50 [2] [µg/mL] | Therapeutic Index (TC50/IC50) promastigotes [2] | IC50 [3] [µg/mL] | Therapeutic Index (TC50/IC50) amastigotes [3] | TC50 (μg/ml) ±SD RAW [4] [µg/mL] | HC50 (O+ human red blood cells) [µg/mL] | cytocidal/cytostatic effect upon drug withdrawal [5] | more necrotic cells compared to negative control [6] | effect on externalization of phosphatidylserine (apoptotic potential) [6] | increase in parasites at the S phase [7] [fold] | cells with lost kinetoplast DNA and enlarged nuclear DNA ([8]; 2x IC50, 24 hrs) [%] | morphological / mitochondrial changes after 72 hrs ([8]; 2x IC50, 72 hrs) | IC50 (μg/ml) ±SD promastigote [2] [µg/mL] | IC50 (μg/ml) ±SD amastigote [3] [µg/mL] | ROS generation effect in amastigotes [9] | ROS generation effect in promastigotes [10] | morphological / mitochondrial changes after 24 hrs ([8]; 2x IC50, 24 hrs) | nuclear/ kinetoplast DNA degenerated ([8]; 2x IC50, 72 hrs) [%] | parasite burden reduction (Leishmania donovani [11]) [%] |
| --- | --- | --- | --- | --- | --- | --- | --- | --- | --- | --- | --- | --- | --- | --- | --- | --- | --- | --- | --- | --- |
| C1CCCC1.CN(CCn1cc(C2CCCC2)nn1)c1ccnc2cc(Cl)ccc12.I.[Fe] [CQFC1] | most efficacious of the molecules |  |  |  |  |  |  |  |  |  |  |  |  |  |  |  |  |  |  |  |
| CC1COC(Cn2cncn2)(c2ccc(Oc3ccc(Cl)cc3)cc2Cl)O1 (stereo not shown) [Compound C06A, Difenoconazole, reference compound] |  | 0.21 ± 0.008 (≈ 0.517 µM) | 476.19 | 4.6 ± 0.004 (≈ 11.3 µM) | 21.74 | >100 | >100 | cytocidal effect | ~17% | none of the compounds showed any significant effects | 1.5 | 60 | parasite clearance in most fields |  |  |  |  |  |  |  |
| O=C(Nc1ccccc1-c1nc2c(C(=O)O)cccc2o1)c1ccccc1 [Compound C06D] |  |  | 0.06 |  | 0.13 | 0.39 ± 0.010 (≈ 1.09 µM) | >100 | cytocidal effect |  |  |  |  |  | >6.25 | 3.0 ± 0.001 (≈ 8.37 µM) | pro-oxidative effect | anti-oxidative effect |  |  |  |
| Cc1noc(C)c1COc1cccc(C(=O)N=c2[nH]cccc2C)c1 [Compound D05A] |  | 0.2 ± 0.02 (≈ 0.593 µM) | 500 | 3.8 ± 0.03 (≈ 11.3 µM) | 26.32 | >100 | >100 | cytocidal effect | about 6.5% | none of the compounds showed any significant effects | 1.5 |  | most of the fields had total parasite clearance |  |  |  | anti-oxidative effect | did not show any obvious abnormalities | 90 |  |
| CNC(=O)c1nn(C)c2c1C(C)(C)Cc1cnc(Nc3ccc(N4CCN(C)CC4)cc3)nc1-2 [Compound H02B] |  |  | 0.92 |  | 0.02 | 0.11 ± 0.010 (≈ 0.239 µM) | >100 | cytocidal effect |  |  |  |  |  | 0.12 ± 0.150 (≈ 0.261 µM) | >6.25 | pro-oxidative effect | anti-oxidative effect |  |  |  |
| O=[N+]([O-])c1cn2c(n1)O[C@@H](COc1ccc(-c3ccc(F)cc3)nc1)CC2 [DNDI-0690] |  |  |  |  |  |  |  |  |  |  |  |  |  |  |  |  |  |  |  | 96 |

Source: PMC8608343 (PLoS ONE, 2021)
